Values of other authors, collected in patent US20120028943A1, “Medicinal Cream Made Using Fluticasone Propionate And Chitosan And A Process To Make The Same” (APEX LABORATORIES PRIVATE LIMITED, priority 2009, published 2012).

How the values were obtained:
[1] = target: cytochrome P450 3A4 (Homo sapiens, UniProt P08684); settings: liver
[2] = target: T1, human glucocorticoid receptors (Homo sapiens, UniProt P04150)
T1 sequence (P04150 1-777): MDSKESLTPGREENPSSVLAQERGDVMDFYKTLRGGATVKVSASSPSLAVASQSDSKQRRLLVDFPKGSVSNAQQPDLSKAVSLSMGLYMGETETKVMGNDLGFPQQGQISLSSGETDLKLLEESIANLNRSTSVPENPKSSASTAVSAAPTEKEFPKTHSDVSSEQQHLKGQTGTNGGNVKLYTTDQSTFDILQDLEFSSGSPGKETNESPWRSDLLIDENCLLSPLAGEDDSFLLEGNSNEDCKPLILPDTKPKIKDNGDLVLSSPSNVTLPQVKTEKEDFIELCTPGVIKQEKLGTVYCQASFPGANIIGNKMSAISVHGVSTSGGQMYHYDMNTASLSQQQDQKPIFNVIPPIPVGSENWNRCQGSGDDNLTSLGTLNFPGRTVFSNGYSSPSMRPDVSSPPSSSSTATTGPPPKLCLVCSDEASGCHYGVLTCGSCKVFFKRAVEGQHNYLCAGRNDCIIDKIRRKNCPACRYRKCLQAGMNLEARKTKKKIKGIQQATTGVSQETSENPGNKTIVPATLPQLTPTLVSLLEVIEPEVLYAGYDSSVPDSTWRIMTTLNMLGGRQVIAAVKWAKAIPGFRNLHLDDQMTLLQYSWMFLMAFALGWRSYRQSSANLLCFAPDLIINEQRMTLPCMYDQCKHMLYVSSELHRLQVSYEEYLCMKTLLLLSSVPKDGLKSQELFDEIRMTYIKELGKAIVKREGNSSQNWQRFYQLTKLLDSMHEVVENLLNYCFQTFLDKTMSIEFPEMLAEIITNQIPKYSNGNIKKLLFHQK

[3] = tested on: erythrocytes
[4] = not given; remark: listed apart in the source
[5] = tested on: HPA (hypothalamic-pituitary-adrenal)-axis; settings: after dermal administration
[6] = target: T1, human glucocorticoid receptors; settings: in vitro
[7] = target: T2, human transcortin (Homo sapiens, UniProt P08185)
T2 sequence (P08185 23-405): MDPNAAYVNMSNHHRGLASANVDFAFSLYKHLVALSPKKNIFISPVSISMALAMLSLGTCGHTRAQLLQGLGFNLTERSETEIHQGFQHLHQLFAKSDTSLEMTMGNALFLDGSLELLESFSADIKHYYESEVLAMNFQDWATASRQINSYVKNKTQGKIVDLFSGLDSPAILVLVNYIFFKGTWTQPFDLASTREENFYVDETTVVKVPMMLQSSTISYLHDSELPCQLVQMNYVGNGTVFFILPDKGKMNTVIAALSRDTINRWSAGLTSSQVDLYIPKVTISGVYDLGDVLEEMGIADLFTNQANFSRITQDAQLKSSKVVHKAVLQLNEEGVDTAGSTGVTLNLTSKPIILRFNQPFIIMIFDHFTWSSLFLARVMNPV

[8] = tested on: human plasma proteins; settings: averaged

Chain of cytochrome P450 3A4 (P08684 whole entry): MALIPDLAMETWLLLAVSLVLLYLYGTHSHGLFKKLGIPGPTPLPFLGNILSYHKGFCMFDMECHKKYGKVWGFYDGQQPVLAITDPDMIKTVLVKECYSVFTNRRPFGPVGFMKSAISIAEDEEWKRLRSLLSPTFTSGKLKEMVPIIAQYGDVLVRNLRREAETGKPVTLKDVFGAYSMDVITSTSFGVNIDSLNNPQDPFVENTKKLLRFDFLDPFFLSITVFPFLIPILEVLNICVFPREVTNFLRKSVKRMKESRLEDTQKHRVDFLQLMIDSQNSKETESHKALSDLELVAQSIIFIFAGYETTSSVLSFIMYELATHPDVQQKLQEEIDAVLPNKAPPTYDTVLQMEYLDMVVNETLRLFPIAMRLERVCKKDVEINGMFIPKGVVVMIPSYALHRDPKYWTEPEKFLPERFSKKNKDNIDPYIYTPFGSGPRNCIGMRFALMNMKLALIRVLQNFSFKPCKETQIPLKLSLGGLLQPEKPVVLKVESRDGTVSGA

selectivity to the glucocorticoid receptor [2]: high degree of selectivity
affinity for human glucocorticoid receptors ([2]; in vitro): strong affinity
binding to erythrocytes [3]: weakly and reversibly bound
solubility in 95% ethanol ([4]; 95% ethanol): slightly soluble
solubility in dimethyl sulfoxide ([4]; dimethyl sulfoxide): freely soluble
solubility in dimethylformamide ([4]; dimethylformamide): freely soluble
solubility in methanol ([4]; methanol): slightly soluble
solubility in water ([4]; water): practically insoluble
HPA-axis suppressive activity [5]: low
agonist activity at human glucocorticoid receptors [6]: agonist activity
binding to human transcortin [7]: not significantly hound
percentage bound to human plasma proteins [8]: 91%
Compound: CCC(=O)O[C@]1(C(=O)SCF)[C@H](C)C[C@H]2[C@@H]3C[C@H](F)C4=CC(=O)C=C[C@]4(C)[C@@]3(F)[C@@H](O)C[C@@]21C [Fluticasone propionate, S-(fluoromethyl)6α,9-difluoro-11β-17-dihydroxy-16α-methyl-3-oxoandrosta-1,4-diene-17β-carbothioate, 17-propionate]
metabolism [1]: metabolized in the liver by cytochrome P450 3A4-mediated hydrolysis
topical anti-inflammatory potency: high
